Measured values reported in PMC11748363, “Antimicrobial and Antiproliferative Properties of 2‐Phenyl‐N‐(Pyridin‐2‐yl)acetamides” (Chemical Biology & Drug Design, 2025).
In brackets after ≈: the same amount, converted by molar mass. Where two headings read alike, the source gives them in different places.

Experiments:
[1] = system: Mycobacterium tuberculosis H37Ra; test: Antimycobacterial microdilution broth MIC (resazurin), Mtb H37Ra; assay type: cell-based; conditions: for MIC: Mycobacterium tuberculosis, H37RA, read-out: MIC Mtb H37Ra
[2] = system: Mycolicibacterium smegmatis DSM 43465; test: Antimycobacterial microdilution broth MIC (resazurin), M. smegmatis; assay type: cell-based; conditions: DSM43465, read-out: MIC M. smegmatis
[3] = system: Mycolicibacterium aurum DSM 43999; test: Antimycobacterial microdilution broth MIC (resazurin), M. aurum; assay type: cell-based; conditions: DSM43999, read-out: MIC M. aurum
HepG2 cell line = test: Cytotoxicity CellTiter 96, HepG2; assay type: cell-based, human; conditions: Homo sapiens, HepG2, 24 h, 24 h incubation; ^c compound precipitated in the testing medium; ^d over the limit of tested concentrations
[4] = system: Staphylococcus aureus CCM 4223, ATCC 29213; test: Antibacterial microdilution broth MIC, SA; assay type: cell-based; conditions: Staphylococcus aureus
[5] = system: Staphylococcus aureus subsp. aureus CCM 4750, ATCC 43300 (MRSA); test: Antibacterial microdilution broth MIC, MRSA; assay type: cell-based; conditions: Staphylococcus aureus
[6] = system: Staphylococcus epidermidis CCM 4418, ATCC 12228; test: Antibacterial microdilution broth MIC, SE; assay type: cell-based
[7] = system: Enterococcus faecalis CCM 4224, ATCC 29212; test: Antibacterial microdilution broth MIC, EF; assay type: cell-based
[8] = system: Escherichia coli CCM 3954, ATCC 25922; test: Antibacterial microdilution broth MIC, EC; assay type: cell-based
[9] = system: Acinetobacter baumannii DSM 30007, ATCC 19606; test: Antibacterial microdilution broth MIC, ACI; assay type: cell-based
[10] = system: Pseudomonas aeruginosa CCM 3955, ATCC 27853; test: Antibacterial microdilution broth MIC, PA; assay type: cell-based
[11] = system: Candida albicans CCM 8320, ATCC 24433; test: Antifungal microdilution broth MIC, CA
[12] = system: Candida krusei CCM 8271, ATCC 6258; test: Antifungal microdilution broth MIC, CK; conditions: Pichia kudriavzevii
[13] = system: Candida parapsilosis CCM 8260, ATCC 22019; test: Antifungal microdilution broth MIC, CP; conditions: Lodderomyces parapsilosis
[14] = system: Candida tropicalis CCM 8264, ATCC 750; test: Antifungal microdilution broth MIC, CT
[15] = system: Aspergillus fumigatus ATCC 204305; test: Antifungal microdilution broth MIC, AF
[16] = system: Lichtheimia corymbifera CCM 8077; test: Antifungal microdilution broth MIC, LC
[17] = system: Trichophyton interdigitale CCM 8377, ATCC 9533; test: Antifungal microdilution broth MIC, TI; conditions: Trichophyton interdigitale
[18] = system: Aspergillus flavus CCM 8363; test: Antifungal microdilution broth MIC, AFla
[19] = system: Klebsiella pneumoniae CCM 4415, ATCC 10031; test: Antibacterial microdilution broth MIC, KP
[20] = ATCC204305, 24 h, read-out: MIC AF 24h
[21] = ATCC204305, 48 h, read-out: MIC AF 48h
[22] = CCM8077, 24 h, read-out: MIC LC 24h
[23] = CCM8077, 48 h, read-out: MIC LC 48h
[24] = CCM8363, 24 h, read-out: MIC AFla 24h
[25] = CCM8363, 48 h, read-out: MIC AFla 48h

SMILES | MIC ([1]; Calculated from MIC (μg/mL)) [µM] | MIC [1] [µg/mL] | MIC [2] [µg/mL] | MIC [3] [µg/mL] | IC50 (HepG2 cell line) [µM] | MIC ([4]; 24 h, read-out: MIC SA 24h) [µM] | MIC ([4]; 48 h, read-out: MIC SA 48h) [µM] | MIC ([5]; 24 h, read-out: MIC MRSA 24h) [µM] | MIC ([5]; 48 h, read-out: MIC MRSA 48h) [µM] | MIC ([6]; 24 h, read-out: MIC SE 24h) [µM] | MIC ([6]; 48 h, read-out: MIC SE 48h) [µM] | MIC ([7]; 24 h, read-out: MIC EF 24h) [µM] | MIC ([7]; 48 h, read-out: MIC EF 48h) [µM] | MIC ([8]; 24 h, read-out: MIC EC 24h) [µM] | MIC ([8]; 48 h, read-out: MIC EC 48h) [µM] | MIC ([9]; 24 h, read-out: MIC ACI 24h) [µM] | MIC ([9]; 48 h, read-out: MIC ACI 48h) [µM] | MIC ([10]; 24 h, read-out: MIC PA 24h) [µM] | MIC ([10]; 48 h, read-out: MIC PA 48h) [µM] | MIC ([11]; 24 h, read-out: MIC CA 24h) [µM] | other results
COc1cccc(CC(=O)Nc2ccc(Cl)cn2)c1 [Compound 8, 2-(3-methoxyphenyl)-N-(5-chloropyridin-2-yl)acetamide] | 113 | 31.2 | > 500 | > 500 | 158 | 500 (≈ 138 µg/mL) | > 500 | > 500 | > 500 | 250 (≈ 69.2 µg/mL) | > 500 | > 500 | > 500 | > 500 | > 500 | > 500 | > 500 | > 500 | > 500 | > 500 | SI (selectivity index) ([1]; SI = HepG2 IC50 (μM)/MIC MtbH37Ra (μM), calculated for compounds with MIC ≤ 31.25 μg/mL): 1.4; MIC ([11]; 48 h, read-out: MIC CA 48h): > 500 µM; MIC ([12]; 24 h, read-out: MIC CK 24h): 500 µM (≈ 138 µg/mL); MIC ([12]; 48 h, read-out: MIC CK 48h): 500 µM (≈ 138 µg/mL); MIC ([13]; 24 h, read-out: MIC CP 24h): > 500 µM; MIC ([13]; 48 h, read-out: MIC CP 48h): > 500 µM; MIC ([14]; 24 h, read-out: MIC CT 24h): > 500 µM; MIC ([14]; 48 h, read-out: MIC CT 48h): > 500 µM; MIC [15, 20]: > 500 µM; MIC [15, 21]: > 500 µM; MIC [16, 22]: 500 µM (≈ 138 µg/mL); MIC [16, 23]: 500 µM (≈ 138 µg/mL); MIC ([17]; 72 h, read-out: MIC TI 72h): 500 µM (≈ 138 µg/mL); MIC ([17]; 120 h, read-out: MIC TI 120h): 500 µM (≈ 138 µg/mL); MIC [18, 24]: 500 µM (≈ 138 µg/mL); MIC [18, 25]: 500 µM (≈ 138 µg/mL); MIC KP 24h [19]: > 500 µM; MIC KP 48h [19]: > 500 µM
COc1ccccc1CC(=O)Nc1ccc(Cl)cn1 [Compound 5] | > 1800 | > 500 | > 500 | > 500 | > 250 | > 500 | > 500 | > 500 | > 500 | > 500 | > 500 | > 500 | > 500 | > 500 | > 500 | > 500 | > 500 | > 500 | > 500 | > 500 | MIC ([11]; 48 h, read-out: MIC CA 48h): > 500 µM; MIC ([12]; 24 h, read-out: MIC CK 24h): > 500 µM; MIC ([12]; 48 h, read-out: MIC CK 48h): > 500 µM; MIC ([13]; 24 h, read-out: MIC CP 24h): > 500 µM; MIC ([13]; 48 h, read-out: MIC CP 48h): > 500 µM; MIC ([14]; 24 h, read-out: MIC CT 24h): > 500 µM; MIC ([14]; 48 h, read-out: MIC CT 48h): > 500 µM; MIC [15, 20]: > 500 µM; MIC [15, 21]: > 500 µM; MIC [16, 22]: > 500 µM; MIC [16, 23]: > 500 µM; MIC ([17]; 72 h, read-out: MIC TI 72h): 500 µM (≈ 138 µg/mL); MIC ([17]; 120 h, read-out: MIC TI 120h): 500 µM (≈ 138 µg/mL); MIC [18, 24]: > 500 µM; MIC [18, 25]: > 500 µM; MIC KP 24h [19]: > 500 µM; MIC KP 48h [19]: > 500 µM
